Measurements from patent US20130217664A1, “NOVEL COMPOUNDS USEFUL FOR THE TREATMENT OF DEGENERATIVE AND INFLAMMATORY DISEASES” (priority 2012, published 2013).
Like-named read-outs stand apart in the source and are kept apart here.

Tests used:
human JAK3 = biological target: T1, human JAK3 (Homo sapiens, UniProt P52333); experiment: JAK3 inhibition assay; format: biochemical; details: recombinant human JAK3 catalytic domain; polyGT substrate
T1 construct: catalytic domain (amino acids 781-1124; catalog number PV3855); purchased Invitrogen PV3855
In short: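 Radiometric kinase assay: 0.5 ng JAK3 with 2.5 μg polyGT in Tris pH 7.5/MgCl2 buffer, 1 μM ATP plus 0.25 μCi 33P-γ-ATP, 1% DMSO, 45 min at 30 °C, stopped with phosphoric acid.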

human JAK1 = biological target: T2, human JAK1 (Homo sapiens, UniProt P23458); experiment: JAK1 inhibition assay (polyGT substrate / Ulight-JAK1 peptide); format: biochemical; details: recombinant human JAK1 catalytic domain; polyGT or Ulight-JAK1 peptide assay
T2 construct: catalytic domain, amino acids 866-1154; catalog number PV4774; purchased Invitrogen PV4774
In short: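 Two formats. PolyGT radiometric: 45 min at 30 °C, stopped with phosphoric acid, counted as cpm. Ulight-JAK1 peptide: 60 min at room temperature, stopped with Eu-anti-phosphotyrosine/EDTA, read as RFU. Percent inhibition normalised to vehicle and 10 μM staurosporine.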

[1] = test system: pSTAT1(2)-luciferase reporter in HeLa cells triggered with human OSM; experiment: JAK-STAT signalling assay; format: cell-based; details: read-out: JAK-STAT IC50
In short: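 HeLa cells transiently co-transfected with pSTAT1(2)-luciferase and LacZ control reporter, preincubated with compound 60 min, then stimulated with human OSM (33 ng/mL final) overnight at 37 °C. Luciferase read by luminescence; percent inhibition from vehicle and no-trigger controls, EC50 from dose-response.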

[2] = Homo sapiens, HeLa, HeLa cells, pSTAT1(2)-luciferase reporter, human OSM 33 ng/mL
[3] = HeLa cells, pSTAT1(2)-luciferase reporter, human OSM 33 ng/mL

T1 sequence (P52333 781-1124): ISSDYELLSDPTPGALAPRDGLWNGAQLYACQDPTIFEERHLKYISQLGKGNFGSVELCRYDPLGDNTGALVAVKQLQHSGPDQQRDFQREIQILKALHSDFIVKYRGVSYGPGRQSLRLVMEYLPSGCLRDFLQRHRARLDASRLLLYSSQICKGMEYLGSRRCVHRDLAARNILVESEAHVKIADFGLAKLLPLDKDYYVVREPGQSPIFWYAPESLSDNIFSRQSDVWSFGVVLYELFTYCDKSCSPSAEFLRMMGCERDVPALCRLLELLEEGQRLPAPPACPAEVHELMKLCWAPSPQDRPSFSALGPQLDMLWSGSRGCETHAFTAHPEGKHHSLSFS
T2 sequence (P23458 866-1154): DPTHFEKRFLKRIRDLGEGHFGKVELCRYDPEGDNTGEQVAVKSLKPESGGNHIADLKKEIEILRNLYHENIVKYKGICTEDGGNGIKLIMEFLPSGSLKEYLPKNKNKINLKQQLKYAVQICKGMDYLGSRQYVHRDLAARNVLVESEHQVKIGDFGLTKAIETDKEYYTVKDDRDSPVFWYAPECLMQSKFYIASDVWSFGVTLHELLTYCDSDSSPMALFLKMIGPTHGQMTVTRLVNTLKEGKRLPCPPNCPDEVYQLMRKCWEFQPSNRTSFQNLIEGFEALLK

| SMILES | IC50 (human JAK3) | IC50 (human JAK1) | IC50 [1, 2] | IC50 [1, 3] | IC50 ([1]; Homo sapiens, HeLa) |
| --- | --- | --- | --- | --- | --- |
| CNC(=O)c1ccc(N(C)c2cc3c(cn2)ncn3C)c(C)c1 [Compound 30, N,3-Dimethyl-4-(methyl(1-methyl-1H-imidazo[4,5-c]pyridin-6-yl)amino)-benzamide] | > 1000 nM | 101 to 500 nM | > 1000 nM |  |  |
| Cc1cc(C#N)ccc1N(C)c1cc2c(cn1)ncn2C [Compound 31, 3-Methyl-4-(methyl(1-methyl-1H-imidazo[4,5-c]pyridin-6-yl)amino)benzonitrile] | > 1000 nM | 0.01 to 100 nM | > 1000 nM |  |  |
| Cc1cc(C(N)=O)ccc1N(C)c1cc2c(cn1)ncn2C [Compound 32, 3-Methyl-4-(methyl(1-methyl-1H-imidazo[4,5-c]pyridin-6-yl)amino)benzamide] | > 1000 nM | 0.01 to 100 nM | > 1000 nM |  |  |
| COc1ccc(COc2ccc(N(C)c3cc4c(cn3)ncn4C)c(C)c2)cc1 [Compound 33, N-(4-(4-Methoxybenzyloxy)-2-methylphenyl)-N,1-dimethyl-1H-imidazo[4,5-c]pyridin-6-amine] | > 1000 nM | 0.01 to 100 nM |  | > 1000 nM |  |
| CCc1ccccc1N(CC)c1cc2c(cn1)ncn2C [Compound 34, N-Ethyl-N-(2-ethylphenyl)-1-methyl-1H-imidazo[4,5-c]pyridin-6-amine] | 501 to 1000 nM | 0.01 to 100 nM |  |  | > 1000 nM |
| COc1ccc(COc2ccc(C)c(N(C)c3cc4c(cn3)ncn4C)c2)cc1 [Compound 43, N-(5-(4-methoxybenzyloxy)-2-methylphenyl)-N,1-dimethyl-1H-imidazo[4,5-c]pyridin-6-amine] | > 1000 nM | 101 to 500 nM |  | > 1000 nM |  |
| Cc1cc(OCCCC#N)ccc1N(C)c1cc2c(cn1)ncn2C [Compound 48, 4-(3-methyl-4-(methyl(1-methyl-1H-imidazo[4,5-c]pyridin-6-yl)amino)phenoxy)butane nitrile] | > 1000 nM | 0.01 to 100 nM | > 1000 nM |  |  |
| Cc1ccc(OCc2ccccc2)cc1N(C)c1cc2c(cn1)ncn2C [Compound 56, N-(5-(benzyloxy)-2-methylphenyl)-N,1-dimethyl-1H-imidazo[4,5-c]pyridin-6-amine] | > 1000 nM | 101 to 500 nM |  | > 1000 nM |  |
| Cc1ccc(OCc2cccnc2)cc1N(C)c1cc2c(cn1)ncn2C [Compound 61, N,1-dimethyl-N-(2-methyl-5-(pyridin-3-ylmethoxy)phenyl)-1H-imidazo[4,5-c]pyridin-6-amine] | > 1000 nM | 0.01 to 100 nM |  | > 1000 nM |  |
| Cc1ccc(OCc2ccc(Cl)cc2)cc1N(C)c1cc2c(cn1)ncn2C [Compound 62, N-(5-(4-chlorobenzyloxy)-2-methylphenyl)-N,1-dimethyl-1H-imidazo[4,5-c]pyridin-6-amine] | > 1000 nM | 501 to 1000 nM |  | > 1000 nM |  |
| Cc1ccc(OCC(C)C)cc1N(C)c1cc2c(cn1)ncn2C [Compound 63, N-(5-isobutoxy-2-methylphenyl)-N,1-dimethyl-1H-imidazo[4,5-c]pyridin-6-amine] | > 1000 nM | 101 to 500 nM | > 1000 nM |  |  |
| Cc1cc(-c2cncnc2)ccc1N(C)c1cc2c(cn1)ncn2C [Compound 72, N,1-dimethyl-N-(2-methyl-4-(pyrimidin-5-yl)phenyl)-1H-imidazo[4,5-c]pyridin-6-amine] | > 1000 nM | 101 to 500 nM | > 1000 nM |  |  |
| Cc1cc(-c2cnn(C)c2)ccc1N(C)c1cc2c(cn1)ncn2C [Compound 73, N,1-dimethyl-N-(2-methyl-4-(1-methyl-1H-pyrazol-4-yl)phenyl)-1H-imidazo[4,5-c]pyridin-6-amine] | > 1000 nM | 0.01 to 100 nM |  | > 1000 nM |  |
| CCc1cc(C(=O)OC)ccc1N(C)c1cc2c(cn1)ncn2C [Compound 80, Methyl 3-ethyl-4-(methyl(1-methyl-1H-imidazo[4,5-c]pyridin-6-yl)amino)benzoate] | > 1000 nM | 0.01 to 100 nM | > 1000 nM |  |  |
| CCc1ccc(C#N)cc1N(C)c1cc2c(cn1)ncn2C [Compound 83, 4-ethyl-3-(methyl(1-methyl-1H-imidazo[4,5-c]pyridin-6-yl)amino)benzonitrile] | > 1000 nM | 0.01 to 100 nM | > 1000 nM |  |  |
| CCc1cc(C(=O)NC)ccc1N(C)c1cc2c(cn1)ncn2C [Compound 85] | > 1000 nM | 0.01 to 100 nM | > 1000 nM |  |  |
| CCc1cc(C(=O)NCCC#N)ccc1N(C)c1cc2c(cn1)ncn2C [Compound 86, N-(2-Cyanoethyl)-3-ethyl-4-(methyl(1-methyl-1H-imidazo[4,5-c]pyridin-6-yl)amino)benzamide] | > 1000 nM | 0.01 to 100 nM | > 1000 nM |  |  |
| Cc1ccc(Oc2ccc(C#N)nc2)cc1N(C)c1cc2c(cn1)ncn2C [Compound 91, 5-(4-methyl-3-(methyl(1-methyl-1H-imidazo[4,5-c]pyridin-6-yl)amino)phenoxy)picolino-nitrile] | > 1000 nM | 0.01 to 100 nM |  | > 1000 nM |  |

More lines, main results first:

| IC50 (human JAK3) | IC50 (human JAK1) | IC50 [1, 2] | IC50 [1, 3] | SMILES | IC50 ([1]; Homo sapiens, HeLa) |
| --- | --- | --- | --- | --- | --- |
| > 1000 nM | 0.01 to 100 nM | > 1000 nM |  | CN(c1ccc(O)cc1)c1cc2c(cn1)ncn2C [Compound 17, 4-(methyl(1-methyl-1H-imidazo[4,5-c]pyridin-6-yl)amino)phenol] |  |
| > 1000 nM | 0.01 to 100 nM | > 1000 nM |  | CN(c1ccc(CC#N)cc1)c1cc2c(cn1)ncn2C [Compound 26, 2-(4-(Methyl(1-methyl-1H-imidazo[4,5-c]pyridin-6-yl)amino)phenyl)acetonitrile] |  |
| > 1000 nM | 101 to 500 nM | > 1000 nM |  | COC(=O)c1ccc(N(C)c2cc3c(cn2)ncn3C)c(C)c1 [Compound 27, Methyl 3-methyl-4-(methyl(1-methyl-1H-imidazo[4,5-c]pyridin-6-yl)amino)benzoate] |  |
| > 1000 nM | 0.01 to 100 nM | > 1000 nM |  | CCc1cc(F)ccc1N(C)c1cc2c(cn1)ncn2C [Compound 28, N-(2-Ethyl-4-fluorophenyl)-N,1-dimethyl-1H-imidazo[4,5-c]pyridin-6-amine] |  |
| > 1000 nM | 0.01 to 100 nM | > 1000 nM |  | Cc1cc(CO)ccc1N(C)c1cc2c(cn1)ncn2C [Compound 29, (3-Methyl-4-(methyl(1-methyl-1H-imidazo[4,5-c]pyridin-6-yl)amino)phenyl) MeOH] |  |
| 501 to 1000 nM | 0.01 to 100 nM | > 1000 nM |  | CCc1ccccc1N(CC1CC1)c1cc2c(cn1)ncn2C [Compound 35, N-(cyclopropylmethyl)-N-(2-ethylphenyl)-1-methyl-1H-imidazo[4,5-c]pyridin-6-amine] |  |
| 501 to 1000 nM | 0.01 to 100 nM | > 1000 nM |  | Cc1cc(O)ccc1N(C)c1cc2c(cn1)ncn2C [Compound 38, 3-Methyl-4-(methyl(1-methyl-1H-imidazo[4,5-c]pyridin-6-yl)amino)phenol] |  |
| 501 to 1000 nM | 0.01 to 100 nM | > 1000 nM |  | CN(c1cc2c(cn1)ncn2C)c1ccccc1OC(F)F [Compound 39, N-(2-(difluoromethoxy)phenyl)-N,1-dimethyl-1H-imidazo[4,5-c]pyridin-6-amine] |  |
| 501 to 1000 nM | 0.01 to 100 nM | > 1000 nM |  | Cc1cc(OCC#N)ccc1N(C)c1cc2c(cn1)ncn2C [Compound 47, 2-(3-methyl-4-(methyl(1-methyl-1H-imidazo[4,5-c]pyridin-6-yl)amino)phenoxy)acetoni-trile] |  |
| 101 to 500 nM | 0.01 to 100 nM | > 1000 nM |  | Cc1ccc(OCC#N)cc1N(C)c1cc2c(cn1)ncn2C [Compound 57, 2-(4-methyl-3-(methyl(1-methyl-1H-imidazo[4,5-c]pyridin-6-yl)amino)phenoxy)acetoni-trile] |  |
| 101 to 500 nM | 0.01 to 100 nM | > 1000 nM |  | Cc1ccc(OCCCC#N)cc1N(C)c1cc2c(cn1)ncn2C [Compound 60, 4-(4-methyl-3-(methyl(1-methyl-1H-imidazo[4,5-c]pyridin-6-yl)amino)phenoxy)butane nitrile] |  |
| 101 to 500 nM | 0.01 to 100 nM | > 1000 nM |  | Cc1c(OCC#N)cccc1N(C)c1cc2c(cn1)ncn2C [Compound 64, 2-(2-methyl-3-(methyl(1-methyl-1H-imidazo[4,5-c]pyridin-6-yl)amino)phenoxy)acetoni-trile] |  |
| 501 to 1000 nM | 0.01 to 100 nM |  | > 1000 nM | Cc1cc(-c2cn[nH]c2)ccc1N(C)c1cc2c(cn1)ncn2C [Compound 71, N,1-Dimethyl-N-(2-methyl-4-(1H-pyrazol-4-yl)phenyl)-1H-imidazo[4,5-c]pyridin-6-amine] |  |
| 101 to 500 nM | 0.01 to 100 nM | 1 to 500 nM |  | CCc1cc(CO)ccc1N(C)c1cc2c(cn1)ncn2C [Compound 81, (3-Ethyl-4-(methyl(1-methyl-1H-imidazo[4,5-c]pyridin-6-yl)amino)phenyl)MeOH] |  |
| 501 to 1000 nM | 0.01 to 100 nM | 501 to 1000 nM |  | CCc1ccc(F)cc1N(C)c1cc2c(cn1)ncn2C [Compound 84, N-(2-ethyl-5-fluorophenyl)-N,1-dimethyl-1H-imidazo[4,5-c]pyridin-6-amine] |  |
